# According to US12139488B2, “Pyrido[3,2-d]pyrimidine compounds uses thereof for treating a proliferative disease” (Universite de Montreal, priority 2021, dated 2024):
# Like-named read-outs stand apart in the source and are kept apart here.
# How the values were obtained:
# [1] = system: pERK in SW480 cells (KRAS G12D); assay: Phospho-ERK inhibition (AlphaLISA), SW480; assay type: cell-based, human; conditions: SW480 cells; for SW480 pERK Ymin %: Ymin in brackets; for IC50: class symbol before the bracket
# Protocol: (§1) All cancer cell lines (A375, A101D, A2058, RKO, HT29 SK-MEL 30, IPC298, HepG2, HCT-116, Lovo, SWV620, SW480, NCI-H358, NCI-H2122, Calu-6, NCIH2087, NCIH1755, NCIH1666 and Mewo) were obtained from ATCC and cultured in RPMI-1640 medium (Gibco) supplemented with 5% heat inactivated fetal bovine serum (FBS, Wisent) at 37° C. under 5% CO2. Cells were maintained in T175 flasks (Greiner). They were passaged by removing the culture medium, washing once in 10 mL of room temperature Phosphate Buffered Saline (PBS; Wisent) and incubating at 37° C. with 2 mL of 0.05% Trypsin (Thermo-Fisher). Trypsin was then inactivated by adding complete growth medium and the cells were then replated in a T175 culture dish at the appropriate dilution. All cell lines were routinely tested for mycoplasma contamination. Tissue type and mutational status of each cell line can be found in Table B.
# (§2) AlphaLISA® SureFire® Ultra™ p-ERK 1/2 (Thr202/Tyr204) analysis was conducted on cells plated in 100 μL of complete RPMI-1640 growth medium in 96-well flat-bottomed transparent dishes (Costar) at a density indicated in Table C. Cells were maintained overnight at 37° C. under 5% CO2 before treatment with compounds' dilution series for one hour. The cell density in cells/cm^2 corresponds to cell number divided by the area of one well of a 96-well plate ([…]).
# (§3) In a dilution series 100 μL/well of test substance dilution prepared in complete RPMI-1640 growth media was added to the cells. The dilution series is selected so that ten concentrations cover a range from 10 μM to 0.33 nM. If necessary the initial concentration of 10 μM is increased to 100 μM or lowered to 1 μM (as in the case of A375 and H1666 cells, which are generally more sensitive to the compounds) and further dilution is carried out accordingly. The final concentration of DMSO in the assay is set at 0.5%.
# (§4) After treatment, media was removed and cells were lysed in 50 μL of 1× AlphaScreen Ultra Lysis Buffer (Perkin Elmer). The AlphaLISA® SureFire® Ultra™ p-ERK 1/2 (Thr202/Tyr2O4) (PerkinElmer) reactions were performed with 5 μL of cell lysate according to the manufacturer's specifications in 384-well proxyplates (Perkin Elmer) followed by overnight incubation of the reactions at room temperature in a humidified chamber. After completion of the reactions, the signals were recorded on an EnVision plate reader (Perkin Elmer) using built in AlphaLISA® settings.
# (§5) The effect of each compound dilution on the pERK signal was expressed in % inhibition and calculated as follows. An internal 100% inhibition control ([…] trametinib, cat #HY-10999; MedChem Express; CAS #871700-17-3) was included in each plate and used as a measure of pERK background. First, the value obtained for trametinib was subtracted from each data point. The average of DMSO (vehicle) controls (set as 0% inhibition) was established and used to calculate % inhibition: % inhibition=100*(1-((pERK signalcompound)/(pERK signalDMSO)))
# (§6) The ability of each compound to inhibit pERK signal was expressed as an IC50 value obtained by plotting the inhibition values for each data point of a dilution series and fitting the obtained curves using a log(agonist) versus response-variable slope (four parameters) function using GraphPadPrism (V7.0) or Dotmatics Screening Ultra platform.
# (§7) When present, paradoxical pERK induction is inferred from the negative % inhibition values observed in the pERK IC50 curves of a compound.
# [2] = system: pERK in HCT-116 cells (KRAS G13D); assay: Phospho-ERK inhibition (AlphaLISA SureFire Ultra p-ERK 1/2), HCT116; assay type: cell-based, human; conditions: HCT116 cells; for HCT116 pERK Ymin %: Ymin in brackets
# Protocol: as §1, §2, §3, §4, §5, §6, §7
# BRAF = BRAF (Homo sapiens (Human), UniProt P15056); assay: BRAF kinase activity assay (ADP-Glo); assay type: biochemical; conditions: read-out: Kinase IC50 (nM) BRAF
# Chain of BRAF (P15056 whole entry): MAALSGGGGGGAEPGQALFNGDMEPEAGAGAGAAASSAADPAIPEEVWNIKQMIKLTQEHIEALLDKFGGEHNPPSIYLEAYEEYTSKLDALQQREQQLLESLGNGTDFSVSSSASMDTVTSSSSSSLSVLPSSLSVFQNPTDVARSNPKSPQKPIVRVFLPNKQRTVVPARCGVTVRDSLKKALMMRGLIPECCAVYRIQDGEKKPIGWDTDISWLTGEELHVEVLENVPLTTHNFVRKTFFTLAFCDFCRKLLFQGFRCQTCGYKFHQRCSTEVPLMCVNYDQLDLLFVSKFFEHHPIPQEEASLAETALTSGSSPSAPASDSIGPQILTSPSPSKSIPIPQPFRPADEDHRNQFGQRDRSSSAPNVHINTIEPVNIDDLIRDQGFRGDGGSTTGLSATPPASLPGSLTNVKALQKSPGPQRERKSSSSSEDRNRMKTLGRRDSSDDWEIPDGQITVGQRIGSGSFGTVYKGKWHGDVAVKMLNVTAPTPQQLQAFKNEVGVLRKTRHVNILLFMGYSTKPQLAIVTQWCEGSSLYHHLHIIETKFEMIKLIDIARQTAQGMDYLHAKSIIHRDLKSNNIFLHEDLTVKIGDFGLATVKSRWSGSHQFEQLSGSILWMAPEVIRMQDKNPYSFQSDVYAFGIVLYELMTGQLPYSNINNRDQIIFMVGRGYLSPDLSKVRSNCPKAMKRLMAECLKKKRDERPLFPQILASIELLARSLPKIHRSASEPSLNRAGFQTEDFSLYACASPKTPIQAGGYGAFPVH
# Protocol: (§8) Compound preparation: solid samples of each substances in 1 dram vials were suspended in DMSO (Fisher Scientific) at a stock concentration of 20 mM. Stocks were kept at −20° C. and protected from light.
# (§9) In vitro enzymatic reactions were used for evaluating compounds intrinsic activity against BRAF, CRAF and ARAF. […] Separate reactions were performed with the MEK1 substrate and ATP as a blank control.
# (§10) For compound treatment, 5 μL/well of test substance solution are placed in a 384-well proxyplate (Perkin Elmer) and mixed with 2× concentrated kinase reactions. The dilution series is selected so that nine concentrations cover a range from 100 nM to 0.01 nM. […] The final concentration of DMSO in the assay is set at 0.05%.
# (§11) BRAF and CRAF kinase reactions were carried out for a total of 2 hours at 30° C. and then stopped by ½ dilution in ADP-Glo Reagent (cat #V9102; Promega; part V912C). Reactions were then incubated for 1h at room temperature before addition of one volume of Kinase Detection Reagent (cat #V9102; Promega; part V917A). Plates were then equilibrated at room temperature for 30 minutes before detection of luminescence on a Synergy Neo2 plate reader (Biotek). The effect of each compound dilution on BRAF and CRAF kinase activity was expressed as % inhibition and calculated as follows.
# (§12) IC50 values were obtained by plotting the kinase inhibition values and fitting the dose-activity curves using a log(agonist) versus response-variable slope (four parameters) function using either GraphPadPrism (V7.0) or Dotmatics Screening Ultra platform.
# CRAF = CRAF (Homo sapiens, UniProt P04049); assay: CRAF kinase activity assay (ADP-Glo); assay type: biochemical
# Chain of CRAF (P04049 whole entry, looked up): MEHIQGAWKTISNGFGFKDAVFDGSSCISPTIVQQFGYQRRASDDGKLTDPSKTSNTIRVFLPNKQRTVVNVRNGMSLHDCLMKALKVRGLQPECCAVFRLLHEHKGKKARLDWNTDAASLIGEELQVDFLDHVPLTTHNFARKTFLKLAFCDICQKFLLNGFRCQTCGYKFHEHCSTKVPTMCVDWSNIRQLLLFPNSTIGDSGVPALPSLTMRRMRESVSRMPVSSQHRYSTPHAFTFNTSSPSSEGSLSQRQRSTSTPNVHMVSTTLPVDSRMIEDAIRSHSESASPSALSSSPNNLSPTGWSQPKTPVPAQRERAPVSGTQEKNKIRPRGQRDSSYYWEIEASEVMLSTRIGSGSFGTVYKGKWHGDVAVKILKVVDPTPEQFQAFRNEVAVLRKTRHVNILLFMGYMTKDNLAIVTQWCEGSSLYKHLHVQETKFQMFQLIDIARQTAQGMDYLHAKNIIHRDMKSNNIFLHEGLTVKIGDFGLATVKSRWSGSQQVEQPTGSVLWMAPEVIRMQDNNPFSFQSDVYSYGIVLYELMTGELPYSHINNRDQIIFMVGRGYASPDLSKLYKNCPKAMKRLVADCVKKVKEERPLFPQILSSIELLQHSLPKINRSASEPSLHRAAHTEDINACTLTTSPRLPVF
# Protocol: as §8, §9, §10, §11, §12
# [3] = class symbol before the bracket
IC50 [1],"IC50 [2, 3]",IC50 (BRAF),IC50 (CRAF; read-out: Kinase IC50 (nM) CRAF),IC50 ([2]; class symbol),"IC50 (CRAF; CRAF, read-out: Kinase IC50 (nM), CRAF biochemical kinase assay)",IC50 [2],HCT116 pERK % Ymin (lowest value of the IC50 curve) ([2]; Ymin above −20% = minimal or no paradoxical activation),SMILES,SW480 pERK Ymin % [1],HCT116 pERK Ymin % [2]
1000 to 10000 nM,1000 to 10000 nM,,,,,,,COc1ccc(S(=O)(=O)Nc2ccc(F)c(Nc3ncnc4ccc(-n5cnc(C)c5C)nc34)c2F)cc1 [Ex 32],2%,17%
1000 to 10000 nM,1000 to 10000 nM,,,,,,,COc1ccc(S(=O)(=O)Nc2ccc(F)c(Nc3ncnc4ccc(-n5ccnc5)nc34)c2F)cc1 [Ex 33],0%,5%
500 to 1000 nM,1000 to 10000 nM,,,,,,,COc1ccc(S(=O)(=O)Nc2ccc(F)c(Nc3ncnc4ccc(-c5cncnc5)nc34)c2F)c(C)c1 [Ex 56],7%,−9%
1000 to 10000 nM,1000 to 10000 nM,,,,,,,COc1ccc(S(=O)(=O)Nc2ccc(F)c(Nc3ncnc4ccc(-c5cnc(OC)nc5)nc34)c2F)c(C)c1 [Ex 57],-9%,-8%
1000 to 10000 nM,10000 to 30000 nM,,,,,,,COc1ccc(S(=O)(=O)Nc2ccc(F)c(Nc3ncnc4ccc(-c5ccsc5)nc34)c2F)c(C)c1 [Ex 58],2%,−1%
1000 to 10000 nM,1000 to 10000 nM,,,,,,,COc1ccc(S(=O)(=O)Nc2ccc(F)c(Nc3ncnc4ccc(-n5cnc6nccnc65)nc34)c2F)c(C)c1 [Ex 60],10%,−10%
1000 to 10000 nM,1000 to 10000 nM,,,,,,,COc1ccc(S(=O)(=O)Nc2ccc(F)c(Nc3ncnc4ccc(-c5cnc6ccccc6c5)nc34)c2F)c(C)c1 [Ex 61],3%,−8%
< 500 nM,1000 to 10000 nM,,,,,,,COc1ccc(S(=O)(=O)Nc2ccc(F)c(Nc3ncnc4ccc(-c5ccncc5)nc34)c2F)c(C)c1 [Ex 63],10%,−2.1%
1000 to 10000 nM,1000 to 10000 nM,,,,,,,COc1ccc(S(=O)(=O)Nc2ccc(F)c(Nc3ncnc4ccc(-c5cn[nH]c5)nc34)c2F)c(C)c1 [Ex 64],16%,4%
500 to 1000 nM,10000 to 30000 nM,,,,,,,COc1ccc(S(=O)(=O)Nc2ccc(F)c(Nc3ncnc4ccc(-c5cnn(C)c5)nc34)c2F)c(C)c1 [Ex 65],14%,−7%
1000 to 10000 nM,1000 to 10000 nM,,,,,,,COc1ccc(S(=O)(=O)Nc2ccc(F)c(Nc3ncnc4ccc(-c5cccc(O)c5)nc34)c2F)c(C)c1 [Ex 72],−7%,1%
1000 to 10000 nM,1000 to 10000 nM,,,,,,,COc1ccc(S(=O)(=O)Nc2ccc(F)c(Nc3ncnc4ccc(-c5cccc(CO)c5)nc34)c2F)c(C)c1 [Ex 74],3.3%,1%
1000 to 10000 nM,1000 to 10000 nM,,,,,,,N#Cc1cccc(-c2ccc3ncnc(Nc4c(F)ccc(NS(=O)(=O)c5ccccc5Cl)c4F)c3n2)c1 [Ex 77],2%,−8%
1000 to 10000 nM,1000 to 10000 nM,,,,,,,N#Cc1ccc(-c2ccc3ncnc(Nc4c(F)ccc(NS(=O)(=O)c5ccccc5Cl)c4F)c3n2)cc1 [Ex 78],1%,−9%
500 to 1000 nM,500 to 1000 nM,,,,,,,COc1ccc(S(=O)(=O)Nc2ccc(F)c(Nc3ncnc4ccc(-n5cnc6c(NC(C)=O)cccc65)nc34)c2F)c(C)c1 [Ex 79],9.4%,1.5%
1000 to 10000 nM,1000 to 10000 nM,,,,,,,Cc1c([N+](=O)[O-])ncn1-c1ccc2ncnc(Nc3c(F)ccc(NS(=O)(=O)c4ccccc4Cl)c3F)c2n1 [Ex 82],2%,−5%
,1000 to 10000 nM,1 to 10 nM,10 to 50 nM,,,,,CNC(=O)c1cn(-c2ccc3ncnc(Nc4c(F)ccc(NS(=O)(=O)c5ccccc5Cl)c4F)c3n2)c2ccccc12 [Ex 86],,−10%
1000 to 10000 nM,1000 to 10000 nM,,,,,,,COc1ccc(S(=O)(=O)Nc2ccc(F)c(Nc3ncnc4ccc(-n5cc(C(N)=O)c6ccccc65)nc34)c2F)c(C)c1 [Example 69],3%,−1%
1000 to 10000 nM,1000 to 10000 nM,,,,,,,COc1ccc(S(=O)(=O)Nc2ccc(F)c(Nc3ncnc4ccc(-n5cnc6c([N+](=O)[O-])cccc65)nc34)c2F)c(C)c1 [Example 70],5%,−3%
1000 to 10000 nM,1000 to 10000 nM,,,,,,,COc1ccc(S(=O)(=O)Nc2ccc(F)c(Nc3ncnc4ccc(-c5ccc(OC)nc5)nc34)c2F)c(C)c1 [Example 71],8%,−4%
1000 to 10000 nM,1000 to 10000 nM,,,,,,,NC(=O)c1cccc(-c2ccc3ncnc(Nc4c(F)ccc(NS(=O)(=O)c5ccccc5Cl)c4F)c3n2)c1 [Example 80],10%,11%
1000 to 10000 nM,1000 to 10000 nM,,,,,,,NC(=O)c1ccc(-c2ccc3ncnc(Nc4c(F)ccc(NS(=O)(=O)c5ccccc5Cl)c4F)c3n2)cc1 [Example 81],15%,−4%
< 500 nM,< 500 nM,,,,,,,Nc1cccc2c1nnn2-c1ccc2ncnc(Nc3c(F)ccc(NS(=O)(=O)c4ccccc4Cl)c3F)c2n1 [Example 92],18%,−4.6%
< 500 nM,< 500 nM,,,,,,,O=C(c1cn(-c2ccc3ncnc(Nc4c(F)ccc(NS(=O)(=O)c5ccccc5Cl)c4F)c3n2)c2ccccc12)N1CCOCC1 [Example 109],−6.4%,−1.7%
< 500 nM,< 500 nM,,,,,,,Cc1c(Cl)cccc1S(=O)(=O)Nc1ccc(F)c(Nc2ncnc3ccc(-n4nc(C(=O)N5CCNCC5)c5ccccc54)nc23)c1F [Example 127],−3.8%,−1.2%
,,,,< 500 nM,,,,O=S(=O)(Nc1ccc(F)c(Nc2ncnc3ccc(-n4cnc5c(CCO)cccc54)nc23)c1F)c1cccc(Cl)c1Cl [Example 556],,
,,,,,< 10 nM,500 to 1000 nM,0%,O=S1(=O)CCN(c2cccc3c2ncn3-c2ccc3ncnc(Nc4c(F)ccc(NS(=O)(=O)c5cccc(Cl)c5Cl)c4F)c3n2)CC1 [Example 628],,
